Data from patent US10975056B2 (GlaxoSmithKline Intellectual Property Development Limited, priority 2016, dated 2021).
Where “and” joins values, the source holds several entries; their conditions need not be identical. Identical values can stand only once. Counter-ions that a name gives are not always drawn. Like-named read-outs stand apart in the source and are kept apart here.

Key:
DNMT1 = DNMT1 (Homo sapiens, UniProt P26358); test: DNMT1 biochemical activity, breaklight assay and/or SPA assay
Chain of DNMT1 (P26358 whole entry, looked up): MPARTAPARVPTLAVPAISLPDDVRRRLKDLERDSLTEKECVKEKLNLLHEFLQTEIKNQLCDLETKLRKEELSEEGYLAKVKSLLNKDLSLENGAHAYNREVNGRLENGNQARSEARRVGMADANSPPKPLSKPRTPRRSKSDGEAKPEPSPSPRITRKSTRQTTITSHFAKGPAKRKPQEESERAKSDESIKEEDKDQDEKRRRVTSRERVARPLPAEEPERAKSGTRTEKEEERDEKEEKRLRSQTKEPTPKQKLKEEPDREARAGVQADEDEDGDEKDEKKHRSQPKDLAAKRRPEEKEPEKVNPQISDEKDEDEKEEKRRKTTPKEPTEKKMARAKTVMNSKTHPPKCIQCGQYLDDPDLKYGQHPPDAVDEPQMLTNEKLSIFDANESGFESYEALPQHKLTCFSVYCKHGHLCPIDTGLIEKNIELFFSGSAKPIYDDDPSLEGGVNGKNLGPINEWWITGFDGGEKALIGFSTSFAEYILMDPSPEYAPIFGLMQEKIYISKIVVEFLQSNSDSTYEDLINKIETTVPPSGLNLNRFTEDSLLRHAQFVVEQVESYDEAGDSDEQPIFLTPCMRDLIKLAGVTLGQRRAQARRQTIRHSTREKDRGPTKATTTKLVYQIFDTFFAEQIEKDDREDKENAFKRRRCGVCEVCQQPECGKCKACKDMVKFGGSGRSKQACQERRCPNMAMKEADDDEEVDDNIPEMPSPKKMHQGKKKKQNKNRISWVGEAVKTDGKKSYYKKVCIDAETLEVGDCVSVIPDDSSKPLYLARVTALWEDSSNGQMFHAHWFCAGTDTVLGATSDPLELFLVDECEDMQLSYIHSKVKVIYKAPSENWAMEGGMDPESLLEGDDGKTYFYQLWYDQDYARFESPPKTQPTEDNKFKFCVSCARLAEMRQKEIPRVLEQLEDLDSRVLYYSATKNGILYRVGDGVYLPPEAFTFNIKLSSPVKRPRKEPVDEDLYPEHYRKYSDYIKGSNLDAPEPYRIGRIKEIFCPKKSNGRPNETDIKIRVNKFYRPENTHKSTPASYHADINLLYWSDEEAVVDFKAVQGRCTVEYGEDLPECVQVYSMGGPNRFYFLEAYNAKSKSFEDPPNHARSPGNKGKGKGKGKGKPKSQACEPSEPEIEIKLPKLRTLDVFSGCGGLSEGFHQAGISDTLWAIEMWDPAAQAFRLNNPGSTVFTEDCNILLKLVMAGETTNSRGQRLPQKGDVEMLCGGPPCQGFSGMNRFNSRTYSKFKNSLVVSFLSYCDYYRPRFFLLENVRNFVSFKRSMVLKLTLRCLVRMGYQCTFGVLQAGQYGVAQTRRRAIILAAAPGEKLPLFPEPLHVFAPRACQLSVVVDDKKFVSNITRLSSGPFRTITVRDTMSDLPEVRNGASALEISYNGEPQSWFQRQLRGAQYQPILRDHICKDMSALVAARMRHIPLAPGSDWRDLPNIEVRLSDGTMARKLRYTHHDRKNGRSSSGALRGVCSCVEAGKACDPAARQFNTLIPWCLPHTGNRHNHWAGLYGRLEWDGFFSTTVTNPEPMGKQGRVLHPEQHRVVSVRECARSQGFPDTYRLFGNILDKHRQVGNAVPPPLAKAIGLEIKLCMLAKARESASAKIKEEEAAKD

[1] = test system: erythroid progenitor cells (EPCs); test: Fetal hemoglobin (HbF) ELISA in day 7 erythroid progenitor cells; type: cell-based, human; settings: Homo sapiens, Erythroid progenitor cell, HbF ELISA, day 7 EPCs, 5 days; read-out: EPC ELISA (pEC50 category) (converted);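 note: for fetal hemoglobin induction normalized to vehicle-treated cells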
How it was run: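 HbF induction was read by anti-HbF sandwich ELISA (HRP/TMB, OD450) on lysates and normalized to vehicle-treated cells. Cells were day 7 erythroid progenitors derived from human bone marrow CD34+ cells, seeded at 1,000/well with 3 U/mL rhEPO. Compound was given for 5 days at 37 °C at final concentrations […].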

[2] = binned activity in either the breaklight or the SPA assay
[3] = binned activity in either the breaklight or the SPA assay, read-out: DNMT1 BioChemical (pIC50 category) (converted)
[4] = breaklight assay and/or SPA assay, repeated experimental runs, read-out: average pIC50 against DNMT1 (converted)

Compound | DNMT1 BioChemical (pIC50 category) (DNMT1; [2]) | EC50 [1] [µM] | IC50 (DNMT1; [3]) [µM] | IC50 (DNMT1; [4]) | IC50 (DNMT1; DNMT1 BioChemical (pIC50 category), binned activity in either the breaklight or the SPA assay) [µM] | IC50 (DNMT1; average pIC50 against DNMT1, breaklight assay and/or SPA assay, repeated experimental runs)
CCc1c(C#N)c(SCc2ccc(NC(C)=O)cc2)nc(N2CCCN(C)CC2)c1C#N [Example 298, N-(4-(((3,5-Dicyano-4-ethyl-6-(4-methyl-1,4-diazepan-1-yl)pyridin-2-yl)thio)methyl)phenyl)acetamide] | D (Category D: ≥6.5) | < 0.316 |  |  |  | 
CCc1c(C#N)c(SCc2ccc(NS(C)(=O)=O)cc2)nc(N2CCCN(C)CC2)c1C#N [Example 299, N-(4-(((3,5-Dicyano-4-ethyl-6-(4-methyl-1,4-diazepan-1-yl)pyridin-2-yl)thio)methyl)phenyl) methanesulfonamide] | D (Category D: ≥6.5) | 0.316 to 1 |  |  |  | 
CCc1c(C#N)c(SCc2ccc(N)nc2)nc(N2CCCN(C)CC2)c1C#N [Example 300, 2-(((6-Aminopyridin-3-yl)methyl)thio)-4-ethyl-6-(4-methyl-1,4-diazepan-1-yl)pyridine-3,5-dicarbonitrile] |  | 1 to 31.6 | 0.316 to 1 |  |  | 
CCc1c(C#N)c(SCc2ccc(NC(=O)CO)cc2)nc(N2CCCN(C)CC2)c1C#N [Example 301, N-(4-(((3,5-Dicyano-4-ethyl-6-(4-methyl-1,4-diazepan-1-yl)pyridin-2-yl)thio)methyl)phenyl)-2-hydroxyacetamide] | D (Category D: ≥6.5) | 0.316 to 1 |  |  |  | 
CCc1c(C#N)c(SCc2ccc(NC(=O)CN)cc2)nc(N2CCCN(C)CC2)c1C#N [Example 302, 2-Amino-N-(4-(((3,5-dicyano-4-ethyl-6-(4-methyl-1,4-diazepan-1-yl)pyridin-2-yl)thio)methyl)phenyl)acetamide] |  | > 31.6 | 0.316 to 1 |  |  | 
CCc1c(C#N)c(SC(C(N)=O)c2ccccc2)nc(N2CC3CC2CN3C)c1C#N (centres unmarked) [Example 303, 2-((3,5-Dicyano-4-ethyl-6-(5-methyl-2,5-diazabicyclo[2.2.1]heptan-2-yl)pyridin-2-yl)thio)-2-phenylacetamide] |  | 0.316 to 1 | 0.316 to 1 | 0.316 to 1 µM and 0.631 µM |  | 
CCc1c(C#N)c(SC(C(N)=O)c2ccccc2)nc(N2CCN(C(=O)c3ccc(Br)cc3)CC2)c1C#N (centres unmarked) [Example 310, 2-((6-(4-(4-Bromobenzoyl)piperazin-1-yl)-3,5-dicyano-4-ethylpyridin-2-yl)thio)-2-phenylacetamide] |  | < 0.316 | 1 to 31.6 | ≥ 1 µM and 2 µM |  | 
CCc1c(Cl)c(SC(C(N)=O)c2ccccc2)nc(N2CCNCC2)c1Cl (centres unmarked) [Example 324, 2-((3,5-Dichloro-4-ethyl-6-(piperazin-1-yl)pyridin-2-yl)thio)-2-phenylacetamide] |  | > 31.6 |  |  | 0.316 to 1 | 0.316 to 1 µM and 0.631 µM
CCc1c(C#N)c(SCc2ccc(S(N)(=O)=O)cc2)nc(N2CCC(NC(=O)CN)CC2)c1C#N [Example 339, 2-Amino-N-(1-(3,5-dicyano-4-ethyl-6-((4-sulfamoylbenzyl)thio)pyridin-2-yl)piperidin-4-yl)acetamide hydrochloride] | D (Category D: ≥6.5) | 1 to 31.6 |  |  |  | 

The next lines start with results.

DNMT1 BioChemical (pIC50 category) (DNMT1; [2]) | EC50 [1] [µM] | IC50 (DNMT1; [3]) [µM] | IC50 (DNMT1; [4]) | Compound | IC50 (DNMT1; DNMT1 BioChemical (pIC50 category), binned activity in either the breaklight or the SPA assay) [µM] | IC50 (DNMT1; average pIC50 against DNMT1, breaklight assay and/or SPA assay, repeated experimental runs)
 | 0.316 to 1 | 1 to 31.6 |  | CCc1c(C#N)c(SC(C(N)=O)c2ccccc2)nc(N2CCC(C#N)CC2)c1C#N (centres unmarked) [Example 319, 2-((3,5-Dicyano-6-(4-cyanopiperidin-1-yl)-4-ethylpyridin-2-yl)thio)-2-phenylacetamide] |  | 
 | 0.316 to 1 | 1 to 31.6 |  | CCc1c(C#N)c(S[C@H](C(N)=O)c2ccccc2)nc(N2CC[C@H](O)C2)c1C#N [Example 320, (S)-2-((3,5-Dicyano-4-ethyl-6-((S)-3-hydroxypyrrolidin-1-yl)pyridin-2-yl)thio)-2-phenylacetamide] |  | 
D (Category D: ≥6.5) | < 0.316 |  |  | CC1(N)CCN(c2nc(SC(C(N)=O)c3ccccc3)c(C#N)c(C3CC3)c2C#N)CC1 (centres unmarked) [Example 321, 2-((6-(4-Amino-4-methylpiperidin-1-yl)-3,5-dicyano-4-cyclopropvlpyridin-2-yl)thio)-2-phenylacetamide] |  | 
D (Category D: ≥6.5) | 0.316 to 1 |  |  | CCc1c(C#N)c(SC(C(N)=O)c2ccccn2)nc(N2CC[C@H](O)C2)c1C#N (stereo partly drawn) [Example 322, 2-((3,5-Dicyano-4-ethyl-6-((S)-3-hydroxypyrrolidin-1-yl)pyridin-2-yl)thio)-2-(pyridin-2-yl)acetamide] |  | 
 | 0.316 to 1 | 1 to 31.6 |  | CCc1c(C#N)c(SC(C(N)=O)c2ccccc2)nc(N2CCC(NC(=O)OC(C)(C)C)CC2)c1C#N (centres unmarked) [Example 328, tert-Butyl (1-(6-((2-amino-2-oxo-1-phenylethyl)thio)-3,5-dicyano-4-ethylpyridin-2-yl)piperidin-4-yl)carbamate] |  | 
 | 1 to 31.6 | 0.316 to 1 |  | CCc1c(C#N)c(SCc2ccc(CNC(C)=O)cc2)nc(N2CCNC(=O)C2)c1C#N [Example 329] |  | 
D (Category D: ≥6.5) | 1 to 31.6 |  |  | CCc1c(C#N)c(SC(C(N)=O)c2ccccc2)nc(N2CC(CC(N)=O)C2)c1C#N (centres unmarked) [Example 330, 2-((6-(3-(2-Amino-2-oxoethyl)azetidin-1-yl)-3,5-dicyano-4-ethylpyridin-2-yl)thio)-2-phenylacetamide] |  | 
 | > 31.6 | 0.316 to 1 |  | CCc1c(C#N)c(SCc2ccc(CNC(C)=O)cc2)nc(N2CCC(O)C2)c1C#N (centres unmarked) [Example 331, N-(4-(((3,5-Dicyano-4-ethyl-6-(3-hydroxypyrrolidin-1-yl)pyridin-2-yl)thio)methyl)benzyl)acetamide] |  | 
 | 0.316 to 1 | 1 to 31.6 |  | CCc1c(C#N)c(SC(CC)c2ccc(CNC(C)=O)cc2)nc(N2CCC(N(C)C)CC2)c1C#N (centres unmarked) [Example 332, N-(4-(1-(3,5-Dicyano-6-(4-(dimethylamino)piperidin-1-yl)-4-ethylpyridin-2-ylthio)propyl)benzyl)acetamide, Trifluoroacetic Acid Salt] |  | 
 | > 31.6 | 0.316 to 1 |  | CCc1c(C#N)c(SCc2ccc(NS(C)(=O)=O)nc2)nc(N2CCCN(C)CC2)c1C#N [Example 335, N-(5-(((3,5-dicyano-4-ethyl-6-(4-methyl-1,4-diazepan-1-yl)pyridin-2-yl)thio)methyl)pyridin-2-yl)methanesulfonamide] |  | 
 | 1 to 31.6 | 0.316 to 1 |  | CCc1c(C#N)c(SCc2ccc(CNC(C)=O)cc2)nc(SC(C(N)=O)c2ccccc2)c1C#N (centres unmarked) [Example 336, 2-(6-(4-(Acetamidomethyl)benzylthio)-3,5-dicyano-4-ethylpyridin-2-ylthio)-2-phenylacetamide] |  | 
 | > 31.6 | 0.316 to 1 | 3.16 µM | CCc1c(C#N)c(SCc2ccc(-c3cccnc3)cc2)nc(N2CCC(N3CCCC3)CC2)c1C#N [Example 337, 4-Ethyl-2-((4-(pyridin-3-yl)benzyl)thio)-6-(4-(pyrrolidin-1-yl)piperidin-1-yl)pyridine-3,5-dicarbonitrile] |  | 
 | > 31.6 | 0.316 to 1 |  | CCc1c(C#N)c(SCc2ccc(-c3ccncc3)cc2)nc(N2CCC(N3CCCC3)CC2)c1C#N [Example 338, 4-Ethyl-2-((4-(pyridin-4-yl)benzyl)thio)-6-(4-(pyrrolidin-1-yl)piperidin-1-yl)pyridine-3,5-dicarbonitrile] |  | 
D (Category D: ≥6.5) | 1 to 31.6 |  |  | CCc1c(C#N)c(SC(C(N)=O)c2ccccc2)nc(N(C)Cc2n[nH]c(=O)[nH]2)c1C#N (centres unmarked) [Example 340, 2-((3,5-Dicyano-4-ethyl-6-(methyl((5-oxo-4,5-dihydro-1H-1,2,4-triazol-3-yl)methyl)amino)pyridin-2-yl)thio)-2-phenylacetamide] |  | 
